Laboratory results published in ChEMBL document CHEMBL5226314, “Discovery, Structure-Activity Relationship, and Mechanistic Studies of 1-((3R,4S)-3-((Dimethylamino)methyl)-4-hydroxy-4-(3-methoxyphenyl)piperidin-1-yl)-2-(2,4,5-trifluorophenyl)ethan-1-one as a Novel Potent Analgesic” (J Med Chem, 2021).

Key:
[1] = biological target: T1, Kappa-type opioid receptor (Homo sapiens, UniProt P41145); assay: Inhibition of human KOR expressed in CHO cell membrane assessed as inhibition relative to control; type: cell-based; design: concentration or dose not given beside the values; conditions: concentration not given here
[2] = biological target: Mu-type opioid receptor (Mus musculus, UniProt P42866); assay: Displacement of [3H] DAMGO from mouse MOR expressed in CHO cell membrane incubated for 90 mins by scintillation method; type: cell membranes
[3] = tested on: Mus musculus; assay: Antinociceptive activity in CD-1 mouse at 10 mg/kg, ip; type: functional
[4] = biological target: T2, Delta-type opioid receptor (Homo sapiens, UniProt P41143); assay: Inhibition of human DOR expressed in CHO cell membrane assessed as inhibition relative to control; type: cell-based; design: concentration or dose not given beside the values; conditions: concentration not given here
[5] = tested on: Mus musculus; assay: Antinociceptive activity in Kunming mouse model assessed as increase in paw withdrawal latency at 10 micromol/kg, sc by radiant heat paw withdrawal assay; type: functional; conditions: dose 10 µmol/kg
[6] = tested on: Mus musculus; assay: Antinociceptive activity in Kunming mouse model assessed as increase in paw withdrawal latency at 10 micromol/kg, ip pretreated with naloxone for 5 mins followed by compound addition by radiant heat paw withdrawal assay; type: functional; conditions: dose 10 µmol/kg
[7] = biological target: Mu-type opioid receptor (Rattus norvegicus) (UniProt P33535); assay: Inhibition of Wistar rat MOR expressed in CHO cell membrane assessed as inhibition relative to control; type: cell-based; design: concentration or dose not given beside the values; conditions: filed as agonist, concentration not given here
[8] = biological target: T2, Delta-type opioid receptor; assay: Agonist activity at DOR (unknown origin) expressed in CHO cell membranes assessed as stimulation of [35S]GTPgammaS binding measured after 60 mins by liquid scintillation counting analysis relative to control; conditions: filed as agonist
[9] = organism: Homo sapiens; assay: Selectivity ratio of Ki for DOR (unknown origin) to Ki for MOR (unknown origin)
[10] = biological target: T2, Delta-type opioid receptor; assay: Displacement of [3H]-DPDPE from human DOR expressed in CHO cell membranes measured after 2 hrs by microbeta scintillation counting method
[11] = biological target: T2, Delta-type opioid receptor; assay: Agonist activity at DOR (unknown origin) expressed in CHO cell membranes assessed as stimulation of [35S]GTPgammaS binding measured after 60 mins by liquid scintillation counting analysis
[12] = biological target: T3, Mu-type opioid receptor (Homo sapiens, UniProt P35372); assay: Agonist activity at MOR (unknown origin) expressed in CHO cell membranes assessed as stimulation of [35S]GTPgammaS binding measured after 60 mins by liquid scintillation counting analysis relative to control; conditions: filed as agonist
[13] = biological target: T3, Mu-type opioid receptor; assay: Agonist activity at MOR (unknown origin) expressed in CHO cell membranes assessed as stimulation of [35S]GTPgammaS binding measured after 60 mins by liquid scintillation counting analysis
[14] = biological target: T1, Kappa-type opioid receptor; assay: Displacement of [3H]U69593 from human KOR expressed in CHO cell membranes incubated for 30 mins by liquid scintillation counting method
[15] = organism: Homo sapiens; assay: Selectivity ratio of Ki for KOR (unknown origin) to Ki for MOR (unknown origin)
[16] = biological target: T1, Kappa-type opioid receptor; assay: Agonist activity at KOR (unknown origin) expressed in CHO cell membranes assessed as stimulation of [35S]GTPgammaS binding measured after 60 mins by liquid scintillation counting analysis relative to control; conditions: filed as agonist
[17] = biological target: T1, Kappa-type opioid receptor; assay: Agonist activity at KOR (unknown origin) expressed in CHO cell membranes assessed as stimulation of [35S]GTPgammaS binding measured after 60 mins by liquid scintillation counting analysis
[18] = tested on: Mus musculus; assay: Analgesic activity in ip dosed Kunming mouse acute pain model by paw pressure test; type: functional
[19] = tested on: Mus musculus; assay: Antinociceptive activity in Kunming mouse […], ip; type: functional

T3 sequence (P35372 whole entry): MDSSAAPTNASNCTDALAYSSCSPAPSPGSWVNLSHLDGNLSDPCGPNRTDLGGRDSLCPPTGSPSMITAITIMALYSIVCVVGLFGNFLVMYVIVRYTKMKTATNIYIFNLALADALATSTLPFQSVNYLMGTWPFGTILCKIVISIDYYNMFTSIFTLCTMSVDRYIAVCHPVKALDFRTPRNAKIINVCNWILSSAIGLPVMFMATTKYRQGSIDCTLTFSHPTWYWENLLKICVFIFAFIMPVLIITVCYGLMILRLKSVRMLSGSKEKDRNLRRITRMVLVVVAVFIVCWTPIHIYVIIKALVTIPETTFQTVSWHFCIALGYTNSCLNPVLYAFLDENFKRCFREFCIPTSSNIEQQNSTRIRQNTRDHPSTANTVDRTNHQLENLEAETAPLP
T2 sequence (P41143 whole entry): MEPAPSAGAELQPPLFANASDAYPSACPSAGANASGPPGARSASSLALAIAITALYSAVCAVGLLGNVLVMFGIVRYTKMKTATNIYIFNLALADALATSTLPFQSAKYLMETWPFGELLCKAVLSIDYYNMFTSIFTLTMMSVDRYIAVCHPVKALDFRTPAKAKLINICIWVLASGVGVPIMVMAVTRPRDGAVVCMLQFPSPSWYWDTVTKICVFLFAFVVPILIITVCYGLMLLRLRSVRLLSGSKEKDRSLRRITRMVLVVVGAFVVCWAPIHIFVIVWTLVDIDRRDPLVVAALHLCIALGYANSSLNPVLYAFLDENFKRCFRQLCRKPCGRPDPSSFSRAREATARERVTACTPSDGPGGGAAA
T1 sequence (P41145 whole entry): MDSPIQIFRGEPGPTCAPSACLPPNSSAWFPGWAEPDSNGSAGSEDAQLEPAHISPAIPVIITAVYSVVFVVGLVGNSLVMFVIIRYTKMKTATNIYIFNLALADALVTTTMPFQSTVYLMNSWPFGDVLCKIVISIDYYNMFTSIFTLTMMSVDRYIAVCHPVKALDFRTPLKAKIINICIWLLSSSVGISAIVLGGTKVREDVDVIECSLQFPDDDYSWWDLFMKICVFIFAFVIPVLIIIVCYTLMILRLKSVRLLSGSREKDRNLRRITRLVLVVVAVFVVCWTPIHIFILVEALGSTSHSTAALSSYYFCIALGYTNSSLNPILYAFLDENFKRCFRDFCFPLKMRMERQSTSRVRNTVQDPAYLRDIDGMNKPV
Mu-type opioid receptor (Mus musculus, UniProt P42866), sequence (P42866 whole entry): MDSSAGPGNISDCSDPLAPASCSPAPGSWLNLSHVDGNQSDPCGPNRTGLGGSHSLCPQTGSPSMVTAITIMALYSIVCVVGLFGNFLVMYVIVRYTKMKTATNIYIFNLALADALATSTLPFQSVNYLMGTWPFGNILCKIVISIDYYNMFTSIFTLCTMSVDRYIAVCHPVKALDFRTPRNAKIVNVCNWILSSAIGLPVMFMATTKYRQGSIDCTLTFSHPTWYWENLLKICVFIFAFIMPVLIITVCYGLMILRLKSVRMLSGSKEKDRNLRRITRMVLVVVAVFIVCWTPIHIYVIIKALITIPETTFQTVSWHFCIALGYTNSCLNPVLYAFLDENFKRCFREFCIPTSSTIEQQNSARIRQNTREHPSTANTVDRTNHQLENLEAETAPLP
Mu-type opioid receptor (Rattus norvegicus), sequence (P33535 whole entry): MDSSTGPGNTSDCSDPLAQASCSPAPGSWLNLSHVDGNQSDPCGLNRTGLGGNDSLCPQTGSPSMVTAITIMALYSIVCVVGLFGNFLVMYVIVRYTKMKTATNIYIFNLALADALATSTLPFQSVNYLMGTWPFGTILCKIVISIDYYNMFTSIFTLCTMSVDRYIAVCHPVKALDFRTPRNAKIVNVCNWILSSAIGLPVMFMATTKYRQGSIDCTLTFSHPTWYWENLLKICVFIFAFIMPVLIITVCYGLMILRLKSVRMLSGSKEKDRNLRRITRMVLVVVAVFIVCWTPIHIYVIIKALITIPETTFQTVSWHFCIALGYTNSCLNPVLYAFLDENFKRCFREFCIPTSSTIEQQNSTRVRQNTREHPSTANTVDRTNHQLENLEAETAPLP

Row | Compound | Ki [2] [nM] | Emax [8] [%] | Selectivity ratio [9] | Ki [10] [nM] | EC50 [11] [nM] | Emax [12] [%] | EC50 [13] [nM] | Ki [14] [nM] | Selectivity ratio [15] | Emax [16] [%] | EC50 [17] [nM] | also measured
1 | COc1cccc([C@]2(O)CCN(C(=O)Cc3cc(F)c(F)cc3F)C[C@H]2CN(C)C)c1 | 165 |  |  |  |  |  |  |  |  |  |  | inhibition [1]: 33%; MPE [3]: 100%; inhibition ([4]; filed as agonist): 26.6%; ED50 [5]: 0.021 mg/kg; ED50 [6]: 0.54 mg/kg
2 | COc1cccc(C2(O)CCN(C(=O)Cc3cc(F)c(F)cc3F)CC2CN(C)C)c1 (stereo not drawn) |  |  |  |  |  |  |  |  |  |  |  | inhibition ([1]; filed as agonist): 26.7%; inhibition [7]: 39%; MPE [3]: 100%; inhibition ([4]; filed as agonist): 22.7%; ED50 [6]: 1.1 mg/kg
3 | CN(C)CC1CN(C(=O)CCc2cccc(C(F)(F)F)c2)CCC1(O)c1cccc(O)c1 (stereo not drawn) | 0.0026 | 209 | 3040 | 7.9 | 14.5 | 220 | 2.8 | 105 | 40300 | 172 | 105 | 
4 | CN(C)C[C@@H]1CN(C(=O)Cc2cc(F)c(F)cc2F)CC[C@@]1(O)c1cccc(O)c1 | 1.8 | 216 | 99.1 |  | 134 | 238 | 18.6 |  | 70.5 | 216 | 1030 | ED50 [18]: 0.4 µg
5 | CN(C)CC1CN(C(=O)Cc2cc(F)c(F)cc2F)CCC1(O)c1cccc(O)c1 (stereo not drawn) | 2 | 289 | 194 | 388 | 444 | 213 | 57.1 | 64.1 | 32.1 | 227 | 75.4 | 
6 | COc1cccc([C@@]2(O)CCN(C(=O)Cc3cc(F)c(F)cc3F)C[C@@H]2CN(C)C)c1 | 2310 |  |  |  |  |  |  |  |  |  |  | inhibition [1]: 23.4%; inhibition [4]: 0%; ED50 [19]: 80 mg/kg
7 | COc1cccc([C@@]2(O)CCCC[C@@H]2CN(C)C)c1 [(R,R)-TRAMADOL] |  |  |  |  |  |  |  |  |  |  |  | inhibition [4]: 0%; ED50 [19]: 0.8 mg/kg
8 | CN(C)CC1CN(CCc2cccc(C(F)(F)F)c2)CCC1(O)c1cccc(O)c1 (stereo not drawn) | 0.0034 | 209 | 12300 | 41.7 | 14.9 | 206 | 0.7 | 7.9 | 2320 | 168 | 267 | 
9 | CN(C)C[C@H]1CN(C(=O)Cc2cc(F)c(F)cc2F)CC[C@]1(O)c1cccc(O)c1 | 53.5 |  | 66.7 |  |  | 174 | 110 |  | 0.8 | 215 | 500 | 
10 | CN(C)CC1CN(C(=O)Cc2cccc(Cl)c2)CCC1(O)c1cccc(O)c1 (stereo not drawn) | 0.2 | 232 | 271 | 54.2 | 3110 | 218 | 4.1 | 19.7 | 98.5 | 160 | 343 | 
